Key:
[1] = tested on: Cyphoma digestive gland cytosolic GST; test: Inhibition of CDNB-conjugating GST activity in digestive gland cytosol; type: biochemical, Cyphoma gibbosum; conditions: prostaglandins screened at 600 µM, 5% (v/v) DMSO, Figure 3
human mu-class GST M1a-a = tested on: human mu-class GST M1a-a; design: method as in PMID 9084911; conditions: conversion to glutathione conjugate; read-out: Km for PGA2; cited from earlier work
rat alpha-class GST A4-4 = tested on: rat alpha-class GST A4-4; design: method as in PMID 12230403; conditions: conversion to glutathione conjugate; read-out: Km for PGA2; cited from earlier work
human mu-class GST M2-2 = tested on: human mu-class GST M2-2; design: method as in PMID 12230403; conditions: conversion to glutathione conjugate; read-out: Km for PGA2; cited from earlier work

CCCCC[C@H](O)/C=C/[C@H]1[C@H](O)CC(=O)[C@@H]1C/C=C\CCCC(=O)OC [15(S)-PGE2-methyl ester]
inhibition of GST activity in comparison to solvent controls [1]: little to no inhibitory activity

CCCCC[C@H](O)/C=C/[C@@H]1[C@@H](C/C=C\CCCC(=O)OC)[C@@H](O)C[C@H]1O [15(S)-PGF2α-methyl ester]
inhibition of GST activity in comparison to solvent controls [1]: little to no inhibitory activity

CCCCC[C@H](O)/C=C/[C@H]1C=CC(=O)[C@@H]1C/C=C\CCCC(=O)O [15(S)-PGA2, prostaglandin A2]
Km (human mu-class GST M1a-a): 26 µM
Km (rat alpha-class GST A4-4): 12 µM
Km (human mu-class GST M2-2): 7.6 µM
inhibition of GST activity in comparison to solvent controls ([1]; 600 µM): most potent inhibitors
inhibition of GST activity in comparison to solvent controls ([1]; listed as PGA2, 600 µM): greatest inhibition

CCCCC[C@@](C)(O)/C=C/[C@H]1C=CC(=O)[C@@H]1C/C=C\CCCC(=O)O [15(R)-15-methyl PGA2]
inhibition of GST activity in comparison to solvent controls [1]: most potent inhibitors
